In US5519138A, “Phenylalkyl derivatives, with pharmaceutical activity” (Dr. Karl Thomae GmbH, priority 1991, dated 1996):

These molecules were tested against T1, Angiotensin II-receptor (Rattus norvegicus, UniProt P25095) (assay: Angiotensin II-receptor bonding). Settings: not given.
T1 construct: The tissue (rats lung) is homogenised in Tris-buffer; from tissue; host or cells: rat lung homogenate (washed 20,000x g pellet)
T1 sequence (P25095 1-359): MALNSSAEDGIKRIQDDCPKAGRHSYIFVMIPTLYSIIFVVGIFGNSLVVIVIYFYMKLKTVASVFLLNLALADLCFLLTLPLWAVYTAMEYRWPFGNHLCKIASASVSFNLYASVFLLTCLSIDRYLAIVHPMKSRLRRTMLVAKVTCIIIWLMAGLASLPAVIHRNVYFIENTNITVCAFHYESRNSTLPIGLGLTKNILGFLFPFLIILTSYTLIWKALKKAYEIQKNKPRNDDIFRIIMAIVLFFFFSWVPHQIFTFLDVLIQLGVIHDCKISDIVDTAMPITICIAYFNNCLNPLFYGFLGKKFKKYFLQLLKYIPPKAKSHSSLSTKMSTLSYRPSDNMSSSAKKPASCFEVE
Format: binding
Method: Description of method: Angiotensin II-receptor bonding
The tissue (rats lung) is homogenised in Tris-buffer (50 mMol Tris, 150 mMol NaCl, 5 mMol EDTA, pH 7.40) and centrifuged twice for 20 minutes at 20,000x g. The finished pellets are resuspended in incubating buffer (50 mMol Tris, 5 mMol MgCl2, 0.2% BSA, pH 7.40) 1:75, based on the moist weight of the tissue. Each 0.1 ml of homogenate is incubated for 60 minutes at 37° C. with 50 pM [^125 I]-angiotensin II (NEN, Dreieich, FRG) with increasing concentrations of the test substance in a total volume of 0.25 ml. Incubation is ended by rapid filtration through glass fibre filter mats. The filters are each washed with 4 ml of ice cold buffer (25 mMol Tris, 2.5 mMol MgCl2, 0.1% BSA, pH 7.40). The bound radioactivity is measured using a gamma-counter. The corresponding IC50 value is obtained from the dose-activity curve.
In the test described, substances A to I show the following IC50 values: […]
Work on CCCCc1nc2ccccc2n1Cc1ccc(NC(c2ccccc2)P(=O)(O)OCC)cc1 (stereo not drawn) [Substance I, 2-n-Butyl-1-[4-[α-(O-ethyl-phosphono)benzylamino]benzyl]benzimidazole] yielded an IC50 of 560 nM.

Same assay, conditions: rats lung homogenate; 50 pM [^125 I]-angiotensin II; 60 minutes at 37° C.; pH 7.40; read-out: IC50
With CCCc1nc2c(C)cccc2n1Cc1ccc(OC(C(=O)O)c2ccccc2)cc1 (stereo not drawn) [Substance A, 2-n-Propyl-4-methyl-1-[4-[(α-carboxy)benzyloxy]benzyl]benzimidazole] the IC50 was 76 nM. Molecule CCCCc1nc2ccc(NC(=O)N(C)C)cc2n1Cc1ccc(OC(C(=O)O)c2ccccc2)cc1 (stereo not drawn) [Substance B, 2-n-Butyl-1-[4-[(α-carboxy)benzyloxy]benzyl]-6-dimethylaminocarbonylamino-benzimidazole] has an IC50 of 8 nM. Molecule CCCc1nc2c(C)cc(-c3nc4ccccc4n3C)cc2n1Cc1ccc(OC(C(=O)O)c2ccccc2)cc1 (stereo not drawn) [Substance C, 2-n-Propyl-6-(1-methyl-benzimidazol-2-yl)-4-methyl-1-[4-[(α-carboxy)benzyloxy]benzyl]benzimidazole] has an IC50 of 4 nM. With Cc1cc(OCc2ccc(OC(C(=O)O)c3ccccc3)cc2)c2ccccc2n1 (stereo not drawn) [Substance D, 2-Methyl-4-[4'-[(α-carboxy)benzyloxy]benzyloxy]quinoline] the IC50 was 2000 nM. With CCCCc1nc2c(C)cccc2c(=O)n1Cc1ccc(OC(C(=O)O)c2ccccc2)cc1 (stereo not drawn) [Substance E, 2-n-Butyl-8-methyl-3-[4-[(α-carboxy)benzyloxy]benzyl]-quinazolin-4-one-semihydrate] the IC50 was 2000 nM. Molecule CCCc1nc2c(C)cc(-c3nc4ccccc4n3C)cc2n1Cc1ccc(OC(c2ccccc2)c2nnn[nH]2)cc1 (stereo not drawn) [Substance F, 2-n-Propyl-4-methyl-6-(1-methyl-benzimidazol-2-yl)-1-[4-[α-(1H-tetrazol-5-yl)benzyloxy]benzyl]benzimidazole] has an IC50 of 12 nM. For CCCCc1nc2ccc(N(C)C(=O)CC)cc2n1Cc1ccc(OC(CC(C)C)C(=O)O)cc1 (stereo not drawn) [Substance G, 2-n-Butyl-6-(N-propionyl-methylamino)-1-[4-[(1-carboxy-3-methyl)butyloxy]benzyl]benzimidazole], the IC50 was 830 nM. Work on CCCCc1nc2cc(N3CCCN(Cc4ccccc4)C3=O)c(C)nc2n1Cc1ccc(OC(c2ccccc2)c2nnn[nH]2)cc1 (stereo not drawn) [Substance H, 2-n-Butyl-5-methyl-6-(3-benzyl-3,4,5,6-tetrahydro-2(1H)-pyrimidinon-1-yl)-3-[4-[α-(1H-tetrazol-5-yl)benzyloxy]benzyl]imidazo[4,5-b]pyridine] yielded an IC50 of 27 nM.
